Experiments:
Assay type in all cases: cell-based, mouse
ES cells = assay: Primary neural sphere colony formation from ES cells in serum-free low-density culture, 7 days; settings: for primary colony formation, factor alone: ES cells at relatively low cell densities, serum-free, 7 days in vitro
Protocol: For passaging ES cells, cultures were disaggregated with 0.05% trypsin dissolved in Tris-saline/EDTA for 5–10 minutes, mechanically dissociated, centrifuged and resuspended in culture medium.
Passaged ES cells were washed (2 times), centrifuged and resuspended in chemically defined serum-free media (Reynolds et al., 1992; Reynolds & Weiss, 1996) composed of a 1:1 mixture of Dulbecco's modified Eagle's medium (DMEM GIBCO) and F-12 nutrient (GIBCO) including 0.6% glucose (Sigma), 2 mM glutamine (GIBCO), 3 mM sodium bicarbonate (Sigma), and 5 mM HEPFS buffer (Sigma). A defined hormone and salt mixture (Sigma) that included insulin (25 (g/ml), transferrin (100 (g/ml), progestrone (20 nM), putrescine (60 (M), and selenium chloride (30 nM) was used instead of serum. ES cells were plated at various cell densities in 24-well culture plates (Nunclon) in the presence of either LIF (1000 U/ml), LIF+FGF2 (10 ng/ml; Upstate Biotech or Sigma) and 2 (g/ml heparin (Sigma), or in the absence of any exogenous growth factors. For short term (4–24 hours) neural differentiation, ES cells were plated in identical culture conditions in 24-well culture plates (Nunclon) that were precoated with poly-L-ornithine (15 μg/ml, Gibco).
Limiting dilution analysis was performed as previously described (Bellows and Aubin, 1989; Tropepe et al., 1999). ES cells were plated in 24-well plates containing LIF (1000 U/ml). Cell numbers were adjusted to give a starting concentration of 5000 cells/ml from which serial dilutions were made. Final cell dilutions ranged from 1000 cells per well to 1 cell per well in 0.5 ml aliquots. Cultures were left undisturbed for 7 days after which time the fraction of wells not containing sphere colonies for each cell plating density was calculated and those points were plotted against the number of cells plated per well. The number of cells required to form one sphere colony, which reflected the proportion of neural stem cells in the entire population, was then determined from the point at which the regression line crossed the 0.37 level (37%). […]

[1] = system: ES-derived neural sphere colony cells; assay: Subcloning of single ES-derived sphere colonies (secondary colony formation, self-renewal); settings: subcloned single primary colonies; factor alone
Protocol: Self-renewal of primary colony-formin) ES cells was assessed as previously described (Tropepe et al., 1999). Single sphere colonies were isolated, mechanically dissociated into a single cell suspension in 0.2 ml of serum-free media containing various combinations of LIF (1000 U/ml), […] (10 ng/ml), heparin (2 (g/ml), EGF (20 ng/ml; Upstate Biotech) or B27 supplement (1X) and cultured in 96-well (Nunclon) plates. Secondary sphere colonies were quantified after 7–10 days. A similar procedure was used for repeated passaging experiments. Cell viability after a 7-day culture period (sphere colony assay) or after 4–24 hours (short-term ES differentiation assay) was determined using trypan blue exclusion (1:2 dilution of 0.4% trypan blue; Gibco).

[2] = system: neural stem cells from the E9.5 forebrain; assay: Sphere colony formation from E9.5 forebrain neural stem cells
Protocol: Pregnant CD1 mice (Charles River, Quebec) of gestational age (9.5 (E9.5) or E11.5 (see below) were killed via cervical dislocation and embryos were removed as previously described (Chiasson et al., 1999; Tropepe et al., 1999). Dissected germinal zone from the E9.5 telencephalon was transferred to serum-free media and mechanically dissociated into a cell suspension with a fire-polished Pasteur pipette. Cell viability was assessed using trypan blue. Cells were plated at 10 cells/μl in 24-well (0.5 ml/well) uncoated plates (Nunclon) in serum-free media containing either FGF2 (10 ng/ml)+heparin (2 (g/ml) or FGF2+heparin+LIF (1000 U/ml). Self-renewal of neural stem cells that generated primary sphere colonies (selecting mainly floating colonies after 7 days in vitro) were routinely subcloned by mechanically dissociating a single colony in 0.2 ml of serum-free media, in identical growth factor conditions as the primary culture, and plated in uncoated 96-well (0.2 ml/well) plates (Nunclon). The number of new secondary colonies was quantified after a further 6–7 days in vitro. Neural stem cell colonies from the adult forebrain subependyma were isolated as previously described (Chiasson et al., 1999) and cultured as above.

| Substance | primary colony formation, factor alone (ES cells) | secondary neural stem cell colony formation [1] | estimated frequency of sphere colony forming cells (ES cells; limiting dilution assay in the presence of LIF (1000 U/ml)) [%] | E9.5 neural stem cell proliferation, LIF alone ([2]; LIF alone) | numbers of neural stem cells forming sphere colonies, with FGF2 ([2]; LIF in the presence of FGF2, compared to FGF2 alone) |
| --- | --- | --- | --- | --- | --- |
| EGF: growth factor, 20 ng/ml; Upstate Biotech (NSDSECPLSHDGYCLHDGVCMYIEALDKYACNCVVGYIGERCQYRDLKWWELR; Epidermal growth factor; UniProt P01133 971-1023, looked up) | no cell colonies were generated | not observed |  |  |  |
| LIF: leukemia inhibitory factor, cytokine added at 1000 U/ml | floating sphere-like colonies were generated | not sufficient for secondary colony formation | ~0.2 | not sufficient for E9.5 neural stem cell proliferation | can enhance the numbers of FGF-responsive neural stem cells |
